What was measured:
Type in all cases: functional
[1] = system: P388; assay: Antitumor activity against mouse P388 cells xenografted in male organism at 800 mg/kg relative to control
[2] = system: P388; assay: Antitumor activity against mouse P388 cells xenografted in male organism at 400 mg/kg relative to control
[3] = system: P388; assay: Antitumor activity against mouse P388 cells xenografted in male organism at 200 mg/kg relative to control
[4] = system: P388; assay: Antitumor activity against mouse P388 cells xenografted in male organism at 100 mg/kg relative to control
[5] = system: P388; assay: Antitumor activity against mouse P388 cells xenografted in female organism at 800 mg/kg relative to control
[6] = system: P388; assay: Antitumor activity against mouse P388 cells xenografted in female organism at 400 mg/kg relative to control
[7] = system: P388; assay: Antitumor activity against mouse P388 cells xenografted in female organism at 200 mg/kg relative to control
[8] = system: P388; assay: Antitumor activity against mouse P388 cells xenografted in female organism at 100 mg/kg relative to control
[9] = system: P388; assay: Antitumor activity against mouse P388 cells xenografted in female organism at 50 mg/kg relative to control

SMILES	T/C [1]	T/C [2]	T/C [3]	T/C [4]	T/C [5]	T/C [6]	T/C [7]	T/C [8]	T/C [9]
CO[C@@H](C)[C@](O)(C(=O)OCC1=CC[N+]2([O-])CC[C@H](O)[C@@H]12)C(C)(C)O (stereo not given in full)	111	129	102	111	–	–	–	–	–
CC(C)[C@](O)(C(=O)OCC1=CC[N+]2([O-])CC[C@@H](O)[C@@H]12)[C@H](C)O (stereo not given in full) [INDICINE N-OXIDE]	187	165	147	–	109	136	130	–	–
CC(C)[C@@](O)(C(=O)OCC1=CC[N+]2([O-])CC[C@H](O)[C@@H]12)[C@H](C)O (stereo not given in full)	–	–	–	–	145	138	118	113	109

Source: ChEMBL document CHEMBL1158658, “Pyrrolizidine Alkaloids From Middle Eastern Plants” (1979)
